# Source: patent publication US8288342B2, “Methods for treating vasomotor symptoms in castrated prostatic cancer patients with low dose cyproterone acetate” (priority 2008, dated 2012)
# Assays:
# [1] = system: hot flashes; conditions: 37 subjects with bothersome hot flashes; cited from earlier work
# [2] = Same Phase 2 trial: adverse events and discontinuation; assay type: in vivo, human
# Text: The overall study duration for each subject was approximately 19 weeks, which included a screening period of up to 4 weeks, a one-week placebo run-in period, a 12-week double-blind period, and a follow-up telephone call two weeks after the last dose of study medication.
# After providing informed consent on the first day of the screening period, all subjects had medical and hot flash history recorded, a physical examination, a chest x-ray and Doppler to assess known thromboembolic risk factors, an ECG to evaluate cardiac risks, and clinical laboratory evaluations. Once all results of tests conducted during the screening period were obtained, subjects who met all of the inclusion criteria and none of the exclusion criteria were eligible to enter the one-week, single-blind, placebo run-in period. […] After beginning study medication, subjects returned for study visits at weeks 2, 4, 8, and 12. Two weeks after the final treatment visit, a telephone follow-up call was conducted to record and evaluate adverse events (“AE”s) since the last study visit.
# [3] = over 2500 patients, long-term use; men 100 to 200 or more than 200 mg/day; cited from earlier work
# [4] = Prior study of 50 mg and 100 mg CPA: discontinuation rates; assay type: in vivo, human
# Description: The results of this study were compared with results from a prior study in which the efficacy of 50 mg and 100 mg of CPA was investigated. Efficacy data for the 50 mg and 100 mg studies showing a reduction in average daily number of moderate to severe hot flashes, and a reduction in average severity of hot flashes is shown in FIGS. 6 and 7, respectively. A comparison of the percent of patients with complete disappearance of all hot flashes at 12 weeks of treatment across studies is shown in Table 10.
compound,measurement,setting,value
"CC(=O)O[C@]1(C(C)=O)CC[C@H]2[C@@H]3C=C(Cl)C4=CC(=O)[C@@H]5C[C@@H]5[C@]4(C)[C@H]3CC[C@@]21C [CPA, cyproterone acetate]",Therapeutic efficacy: reduction in hot flashes,[1],80%
same,"12-week double-blind discontinuation due to Adverse Event, number",[2]; CPA 5 mg (N = 81),2
same,12-week double-blind discontinuation rate due to Adverse Event,[2]; CPA 5 mg (N = 81),(2.5%)
same,"Treatment-emergent AE Constipation, %",[2]; CPA 5 mg (N = 81),0.00%
same,"Treatment-emergent AE Depression, %",[2]; CPA 5 mg (N = 81),1.23%
same,"Treatment-emergent AE Diarrhoea, %",[2]; CPA 5 mg (N = 81),2.47%
same,"Treatment-emergent AE Dizziness, %",[2]; CPA 5 mg (N = 81),2.47%
same,"Treatment-emergent AE Dyspnoea, %",[2]; CPA 5 mg (N = 81),3.70%
same,"Treatment-emergent AE Fatigue, %",[2]; CPA 5 mg (N = 81),1.23%
same,"Treatment-emergent AE Headache, %",[2]; CPA 5 mg (N = 81),3.70%
same,"Treatment-emergent AE Influenza, %",[2]; CPA 5 mg (N = 81),0.00%
same,"Treatment-emergent AE Nasopharyngitis, %",[2]; CPA 5 mg (N = 81),3.70%
same,"Treatment-emergent AE Nausea, %",[2]; CPA 5 mg (N = 81),0.00%
same,"Treatment-emergent AE Oedema peripheral, %",[2]; CPA 5 mg (N = 81),1.23%
same,"Treatment-emergent AE Pain in extremity, %",[2]; CPA 5 mg (N = 81),3.70%
same,"Treatment-emergent AE Urinary tract infection, %",[2]; CPA 5 mg (N = 81),1.23%
same,"Treatment-emergent AE Vomiting, %",[2]; CPA 5 mg (N = 81),1.23%
same,"Treatment-related AE Constipation, %",[2]; CPA 5 mg (N = 81),0.00%
same,"Treatment-related AE Dyspnoea, %",[2]; CPA 5 mg (N = 81),0.00%
same,"Proportion of subjects experiencing treatment-emergent AEs, rank among groups","[2]; CPA 5 mg/day vs placebo, 15 and 25 mg/day",fewest proportion of subjects
same,"12-week double-blind discontinuation due to Adverse Event, number",[2]; CPA 15 mg (N = 99),5
same,12-week double-blind discontinuation rate due to Adverse Event,[2]; CPA 15 mg (N = 99),(5.1%)
same,"Treatment-emergent AE Constipation, %",[2]; CPA 15 mg (N = 99),6.06%
same,"Treatment-emergent AE Depression, %",[2]; CPA 15 mg (N = 99),4.04%
same,"Treatment-emergent AE Diarrhoea, %",[2]; CPA 15 mg (N = 99),6.06%
same,"Treatment-emergent AE Dizziness, %",[2]; CPA 15 mg (N = 99),7.07%
same,"Treatment-emergent AE Dyspnoea, %",[2]; CPA 15 mg (N = 99),7.07%
same,"Treatment-emergent AE Fatigue, %",[2]; CPA 15 mg (N = 99),6.06%
same,"Treatment-emergent AE Gynaecomastia, %",[2]; CPA 15 mg (N = 99),2.02%
same,"Treatment-emergent AE Headache, %",[2]; CPA 15 mg (N = 99),2.02%
same,"Treatment-emergent AE Influenza, %",[2]; CPA 15 mg (N = 99),1.01%
same,"Treatment-emergent AE Nasopharyngitis, %",[2]; CPA 15 mg (N = 99),3.03%
same,"Treatment-emergent AE Nausea, %",[2]; CPA 15 mg (N = 99),2.02%
same,"Treatment-emergent AE Oedema peripheral, %",[2]; CPA 15 mg (N = 99),1.01%
same,"Treatment-emergent AE Pain in extremity, %",[2]; CPA 15 mg (N = 99),3.03%
same,"Treatment-emergent AE Urinary tract infection, %",[2]; CPA 15 mg (N = 99),0.00%
same,"Treatment-emergent AE Vomiting, %",[2]; CPA 15 mg (N = 99),0.00%
same,"Treatment-related AE Constipation, %",[2]; CPA 15 mg (N = 99),2.02%
same,"Treatment-related AE Dyspnoea, %",[2]; CPA 15 mg (N = 99),4.04%
same,"12-week double-blind discontinuation due to Adverse Event, number",[2]; CPA 25 mg (N = 87),7
same,12-week double-blind discontinuation rate due to Adverse Event,[2]; CPA 25 mg (N = 87),(8.0%)
same,"Treatment-emergent AE Constipation, %",[2]; CPA 25 mg (N = 87),3.45%
same,"Treatment-emergent AE Depression, %",[2]; CPA 25 mg (N = 87),1.15%
same,"Treatment-emergent AE Diarrhoea, %",[2]; CPA 25 mg (N = 87),3.45%
same,"Treatment-emergent AE Dizziness, %",[2]; CPA 25 mg (N = 87),4.60%
same,"Treatment-emergent AE Dyspnoea, %",[2]; CPA 25 mg (N = 87),8.05%
same,"Treatment-emergent AE Fatigue, %",[2]; CPA 25 mg (N = 87),1.15%
same,"Treatment-emergent AE Gynaecomastia, %",[2]; CPA 25 mg (N = 87),4.60%
same,"Treatment-emergent AE Headache, %",[2]; CPA 25 mg (N = 87),3.45%
same,"Treatment-emergent AE Influenza, %",[2]; CPA 25 mg (N = 87),3.45%
same,"Treatment-emergent AE Nasopharyngitis, %",[2]; CPA 25 mg (N = 87),5.75%
same,"Treatment-emergent AE Nausea, %",[2]; CPA 25 mg (N = 87),2.30%
same,"Treatment-emergent AE Oedema peripheral, %",[2]; CPA 25 mg (N = 87),5.75%
same,"Treatment-emergent AE Pain in extremity, %",[2]; CPA 25 mg (N = 87),0.00%
same,"Treatment-emergent AE Urinary tract infection, %",[2]; CPA 25 mg (N = 87),3.45%
same,"Treatment-emergent AE Vomiting, %",[2]; CPA 25 mg (N = 87),2.30%
same,"Treatment-related AE Constipation, %",[2]; CPA 25 mg (N = 87),3.45%
same,"Treatment-related AE Dyspnoea, %",[2]; CPA 25 mg (N = 87),4.60%
same,Correlation between duration of CPA treatment and prevalence of liver enzyme elevations,[3],No correlation was found
same,"12-week double-blind discontinuation due to Adverse Event, number",[4]; CPA 50 mg (N = 246),13
same,12-week double-blind discontinuation rate due to Adverse Event,[4]; CPA 50 mg (N = 246),(5.3%)
same,"12-week double-blind discontinuation due to Adverse Event, number",[4]; CPA 100 mg (N = 245),24
same,12-week double-blind discontinuation rate due to Adverse Event,[4]; CPA 100 mg (N = 245),(9.8%)
